Results on 12 compounds are retold here after US8309685B2 (Celgene Avilomics Research, Inc., priority 2007, dated 2012).

Data set [1] deals with cell line ET (luc-ubi-neo/ET), human Huh7 hepatoma cell line. Nature of the data set: Method A: cytotoxicity in ET replicon cells (CytoTox-1). Particulars: concentration decreasing cell viability by 50%, 72 hr. The format is cell-based. As to the method:
The compounds were assayed to evaluate the antiviral activity and cytotoxicity of compounds in vitro using HCV RNA replicons. This assay used the cell line ET (luc-ubi-neo/ET), which is a human Huh7 hepatoma cell line that contains an HCV RNA replicon with a stable luciferase (Luc) reporter and three cell culture-adaptive mutations. […]
The ET cell line was grown in Dulbecco's modified essential media (DMEM), 10% fetal bovine serum (FBS), 1% penicillin-streptomycin (pen-strep), 1% glutamine, 250 μg/ml G418 in a 5% CO2 incubator at 37° C. All cell culture reagents were obtained from Mediatech (Manassas, Va.). Cells were trypsinized (1% trypsin:EDTA) and plated out at 5×10^3 cells/well in white 96-well assay plates (Costar) dedicated to cell number (cytotoxicity) or antiviral activity assessments. Drugs were added at six 3-fold concentrations each and the assay was run in DMEM, 5% FBS, 1% pen-strep, 1% glutamine. Human interferon alpha-2b (PBL Biolabs, New Brunswick, N.J.) was included in each run as a positive control compound. Cells were processed 72 hr post drug addition when the cells are still subconfluent. Antiviral activity was measured by analyzing replicon-derived luciferase activity using the Steady-Glo Luciferase Assay System (Promega, Madison, Wis.) according to manufacturer's instruction. The number of cells in each well was determined by CytoTox-1 reagent (Promega). […].

Data set [2] deals with T1, D168A mutant of the HCV NS3/4A 1b protease enzyme (Hepatitis C virus genotype 1b, UniProt P26663, D1194A).
T1 construct: 10× stocks of NS3/4A protease enzyme from Bioenza (Mountain View, Calif.); purchased Bioenza (Mountain View, Calif.)
Nature of the data set: HCV Protease FRET Assay (IC50), D168A mutant. The format is biochemical. Particulars: read-out: Inhibition, HCV D168A; D168A enzyme, FRET assay. As to the method:
(§1) HCV Protease FRET Assay for Wild Type and Mutated NS3/4A 1b Enzymes (IC50)
(§2) Protease reactions were started with the addition of 45 μL of the FRET substrate and monitored for 120 minutes at λex487/λem514 through Quad^4 monochromoters in a Synergy^4 plate reader from BioTek (Winooski, Vt.). At the conclusion of each assay, progress curves from each well were examined for linear reaction kinetics and fit statistics (R^2, absolute sum of squares).
(§3) The compound numbers correspond to the compound numbers in Table 3.

In data set [3] the test system is HCV RNA replicon in cell line ET (luc-ubi-neo/ET), human Huh7 hepatoma. Nature of the data set: Method A: HCV RNA replicon antiviral assay (luciferase, ET cell line). The format is cell-based, Hepatitis C virus. As to conditions: Hepatitis C virus, Huh-7; Replicon, assay of Example 22; 72 hr; read-out: Inhibition, Replicon. A digest of the protocol: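 Six 3-fold dilutions of each drug were tested on subconfluent luc-ubi-neo/ET Huh7 replicon cells (5×10^3/well) for 72 hr at 37 °C. EC50 and EC90 came from luciferase read-out, IC50 from CytoTox-1 cell number, and […]; interferon alpha-2b was run each time as control.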

Data set [4] concerns the target T2, wild type HCV NS3/4A 1b protease enzyme (Hepatitis C virus genotype 1b, UniProt P26663).
T2 construct: 10× stocks of NS3/4A protease enzyme from Bioenza (Mountain View, Calif.); purchased Bioenza (Mountain View, Calif.)
Nature of the data set: biochemical. As to conditions: read-out: Inhibition, WT; WT enzyme, FRET assay. The format is biochemical. The protocol: as §1, §2, §3

The test system of data set [5] is HCV RNA replicon in cell line ET (luc-ubi-neo/ET), human Huh7 hepatoma. Nature of the data set: Luciferase Assay (Example 35), replicon-derived luciferase activity. The format is cell-based. Particulars: Hepatitis C virus, Huh-7, assay described in Example 35. As to the method: The compounds were assayed to evaluate the antiviral activity and cytotoxicity of compounds using replicon-derived luciferase activity. This assay used the cell line ET (luc-ubi-neo/ET), which is a human Huh7 hepatoma cell line that contains an HCV RNA replicon with a stable luciferase (Luc) reporter and cell culture-adaptive mutations. The ET cell line was grown in a 5% CO2 incubator at 37° C. in Dulbecco's modified essential media (DMEM) supplemented with 2 mM L-glutamine, nonessential amino acids, 100 U of penicillin/ml, 100 μg of streptomycin/mL, and 10% fetal bovine serum. G418 (Geneticin; Invitrogen) was added at a final concentration of 400 ug//mL.
All cell culture reagents were obtained from Invitrogen (Carlsbad). Cells were trypsinized (1% trypsin:EDTA) and plated out at 5×10^3 cells/well in white 96-well assay plates (Costar) dedicated to cell number (cytotoxicity) or antiviral activity assessments. Test compounds were added at six 3-fold concentrations each and the assay was run in DMEM, 5% FBS, 1% pen-strep, 1% glutamine, 1% non essential amino acid. Human interferon alpha-2b (PBL Biolabs, New Brunswick, N.J.) was included in each run as a positive control compound. Cells were processed 72 hr post test compound addition when the cells were still subconfluent. Antiviral activity was measured by analyzing replicon-derived luciferase activity using the Steady-Glo Luciferase Assay System (Promega, Madison, Wis.) according to manufacturer's instruction. The number of cells in each well was determined by Cell Titer Blue Assay (Promega). Compound profile was derived by calculating applicable EC50 (effective concentration inhibiting virus replication by 50%), EC90 (effective concentration inhibiting virus replication by 90%), IC50 (concentration decreasing cell viability by 50%) and SI50 (selective index: […]) values.

Data set [6] deals with T3, R155K mutant of the HCV NS3/4A 1b protease enzyme (Hepatitis C virus genotype 1b, UniProt P26663, R1181K).
T3 construct: 10× stocks of NS3/4A protease enzyme from Bioenza (Mountain View, Calif.); purchased Bioenza (Mountain View, Calif.)
Nature of the data set: HCV Protease FRET Assay (IC50_APP), R155K mutant. The format is biochemical. As to conditions: apparent IC50, R155K mutant; read-out: IC50_APP, HCV R155K. As to the method: HCV Protease FRET Assay for WT and Mutated NS3/4A 1b Enzymes (IC50—APP).
The following protocol was used to generate “apparent” IC50 (IC50—APP) values as depicted in Table 6, below. […] 5 μL of each enzyme were added to Corning (#3575) 384-well, black, microtiter plates (Corning, N.Y.) after spotting a 0.5 μL volume of 50% DMSO and serially diluted compounds prepared in 50% DMSO. Protease reactions were immediately started after enzyme addition with the addition of 45 μL of the FRET substrate and monitored for 60-90 minutes at λex485/λem520 in a Synergy^4 plate reader from BioTek (Winooski, Vt.). At the conclusion of each assay, progress curves from each well were examined for linear reaction kinetics and fit statistics (R^2, 95% confidence intervals, absolute sum of squares).
The compound numbers correspond to the compound numbers in Table 3. […] ;

Data set [7] concerns the target T2, wild type HCV NS3/4A 1b protease enzyme. Nature of the data set: HCV Protease FRET Assay (IC50_APP), wild type. The format is biochemical.
Data set [8] concerns the target T1, D168A mutant of the HCV NS3/4A 1b protease enzyme. The data set is described as follows: HCV Protease FRET Assay (IC50_APP), D168A mutant. The format is biochemical. As to conditions: apparent IC50, D168A mutant; read-out: IC50_APP, HCV D168A.
Setting [9] is: read-out: IC50_APP, WT, apparent IC50, wild type NS3/4A 1b.

For the compound `C=C[C@@H]1C[C@]1(NC(=O)[C@@H]1C[C@@H](Oc2cc(-c3ccccc3)nc3cc(OC)ccc23)CN1C(=O)C1(NC(=O)OC(C)(C)C)CCN(C(=O)CCl)CC1)C(=O)NS(=O)(=O)c1ccccc1` [Compound I-25, tert-butyl-1-(2-chloroacetyl)-4-((2S,4R)-4-(7-methoxy-2-phenylquinolin-4-yloxy)-2-((1R,2S)-1-(phenylsulfonylcarbamoyl)-2-vinylcyclopropylcarbamoyl)pyrrolidine-1-carbonyl)piperidin-4-ylcarbamate], the “Inhibition, Cytotoxicity” value in data set [1] is “C (IC50>100 nM and ≦1000 nM)”. The results for the IC50 in data set [2], in data set [3] and in data set [4] were 10 to 100 nM, > 10000 nM and < 10 nM, respectively.

In the case of `C=C[C@@H]1C[C@]1(NC(=O)[C@@H]1C[C@@H]2CN1C(=O)[C@H](CCC(=O)C=C(C)C)NC(=O)OCCC/C=C/c1ccc3ccnc(c3c1)O2)C(=O)NS(=O)(=O)C1CC1` [Compound I-102], the EC90 in data set [5] (EC90) lay within 10 to 100 nM. The EC50 in data set [5] was < 10 nM. The IC50 in data set [6] was 10 to 100 nM; in data set [7] it was < 10 nM; in data set [8] it was 1000 to 10000 nM.

On to `C=C[C@@H]1C[C@]1(NC(=O)[C@@H]1C[C@@H](Oc2nccc3cc(OC)ccc23)CN1C(=O)[C@H](CC(=O)C=C(C)C)NC(=O)OC(C)(C)C)C(=O)NS(=O)(=O)C1CC1` [Compound I-129], for which, in data set [5], the EC50 is < 10 nM. The IC50 in data set [6] was 10 to 100 nM; in data set [7] (setting [9]), < 10 nM; in data set [8], 100 to 1000 nM.

In turn, `C=CC(=O)N[C@H](C(=O)N1C[C@H](Oc2nccc3cc(OC)ccc23)C[C@H]1C(=O)N[C@]1(C(=O)NS(=O)(=O)C2CC2)C[C@H]1C=C)C(C)(C)O` [Compound I-131] had an EC50 in data set [5] of 100 to 1000 nM. Moreover, the IC50 in data set [6] was 10 to 100 nM; in data set [7] (setting [9]), < 10 nM; in data set [8] it was 10 to 100 nM.

In the case of `C=C[C@@H]1C[C@]1(NC(=O)[C@@H]1C[C@@H](Oc2nccc3cc(OC)ccc23)CN1C(=O)[C@H](CC(=O)C(=C)C)NC(=O)OC(C)(C)C)C(=O)NS(=O)(=O)C1CC1` [Compound I-132], in data set [5], the EC50 lay within 100 to 1000 nM. Moreover, the IC50 in data set [6], in data set [7] (setting [9]) and in data set [8] was < 10 nM each time.

For `C=C[C@@H]1C[C@]1(NC(=O)[C@@H]1C[C@@H](Oc2nccc3cc(OC)ccc23)CN1C(=O)[C@H](CCC(=O)C#CC(C)(C)C)NC(=O)OC(C)(C)C)C(=O)NS(=O)(=O)C1CC1` [Compound I-135], in data set [5], the EC50 lay within 10 to 100 nM. In addition, the IC50 in data set [6], in data set [7] (setting [9]) and in data set [8] was < 10 nM each time.

Regarding `C=C[C@@H]1C[C@]1(NC(=O)[C@@H]1C[C@@H](Oc2nccc3cc(OC)ccc23)CN1C(=O)[C@H](CCC(=O)/C=C\C(C)(C)C)NC(=O)OC(C)(C)C)C(=O)NS(=O)(=O)C1CC1` [Compound I-136], the EC50 in data set [5] was < 10 nM. In addition, the IC50 in data set [6] is 100 to 1000 nM; in data set [7] (setting [9]), < 10 nM; in data set [8], 100 to 1000 nM.

In turn, `C=C[C@@H]1C[C@]1(NC(=O)[C@@H]1C[C@@H](Oc2nccc3cc(OC)ccc23)CN1C(=O)[C@H](CCC(=O)C#Cc1ccccc1)NC(=O)OC(C)(C)C)C(=O)NS(=O)(=O)C1CC1` [Compound I-138] came in with an EC50 in data set [5] of 100 to 1000 nM. For the same compound, the IC50 in data set [6] is < 10 nM; in data set [7] (setting [9]), < 10 nM; in data set [8], 10 to 100 nM.

Consider `C=C[C@@H]1C[C@]1(NC(=O)[C@@H]1C[C@@H](Oc2nccc3cc(OC)ccc23)CN1C(=O)[C@H](CCC(=O)/C=C/C)NC(=O)OC(C)(C)C)C(=O)NS(=O)(=O)C1CC1` [Compound I-139], for which, in data set [5], the EC50 lay in the range of 10 to 100 nM. The IC50 in data set [6], in data set [7] (setting [9]) and in data set [8] was < 10 nM each time.

As to `C=C(C)C(=O)C[C@H](NC(=O)OC(C)(C)C)C(=O)N1C[C@H](Oc2nccc3cc(OC)ccc23)C[C@H]1C(=O)N[C@]1(C(=O)NS(=O)(=O)C2CC2)C[C@H]1CC` [Compound I-140], in data set [5], the EC50 lay within 100 to 1000 nM. For the same compound, the IC50 in data set [6] is < 10 nM; in data set [7] (setting [9]), < 10 nM; in data set [8], 10 to 100 nM.

For the compound `C=C[C@@H]1C[C@]1(NC(=O)[C@@H]1C[C@@H](Oc2nccc3cc(OC)ccc23)CN1C(=O)[C@H](CCC(=O)/C=C/C1CCCC1)NC(=O)OC(C)(C)C)C(=O)NS(=O)(=O)C1CC1` [Compound I-141, tert-butyl-(S,E)-7-cyclopentyl-1-((2S,4R)-2-((1R,2S)-1-(cyclopropylsulfonylcarbamoyl)-2-vinylcyclopropylcarbamoyl)-4-(6-methoxyisoquinolin-1-yloxy)pyrrolidin-1-yl)-1,5-dioxohept-6-en-2-ylcarbamate], the EC50 in data set [5] is < 10 nM. The IC50 was 10 to 100 nM in data set [6], < 10 nM in data set [7] and 100 to 1000 nM in data set [8].

Compound `C=C[C@@H]1C[C@]1(NC(=O)[C@@H]1C[C@@H](Oc2nccc3cc(OC)ccc23)CN1C(=O)[C@@H](C)NC(=O)CC)C(=O)NS(=O)(=O)C1CC1` [I^R-100, (2S,4R)—N-((1R,2S)-1-(cyclopropylsulfonylcarbamoyl)-2-vinylcyclopropyl)-4-(6-methoxyisoquinolin-1-yloxy)-1-((R)-2-propionamidopropanoyl)pyrrolidine-2-carboxamide] gave an EC50 in data set [5] of 1000 to 10000 nM. In addition, the IC50 fell in the range of 1000 to 10000 nM in data set [6], 100 to 1000 nM in data set [7] and 1000 to 10000 nM in data set [8].
